Measured values published in PubChem BioAssay (NCI).
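Here, GI50 denotes the concentration required for 50% inhibition of growth. The concentration for full growth arrest is given as TGI.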

Assays:
Assay in all cases: NCI tumour cell line growth inhibition, 384-well format
OVCAR-8 ovarian = test system: OVCAR-8 ovarian
K-562 leukemia = test system: K-562 leukemia
NCI-H226 lung = test system: NCI-H226 lung
CCRF-CEM leukemia = test system: CCRF-CEM leukemia
SNB-75 CNS = test system: SNB-75 CNS
SW-620 colon = test system: SW-620 colon
MDA-MB-468 breast = test system: MDA-MB-468 breast
TK-10 renal = test system: TK-10 renal
HOP-92 NSCLC = test system: HOP-92 NSCLC
A549 NSCLC = test system: A549 NSCLC
HS 578T breast = test system: HS 578T breast
SF-539 CNS = test system: SF-539 CNS
HT29 colon = test system: HT29 colon
OVCAR-3 ovarian = test system: OVCAR-3 ovarian
MOLT-4 leukemia = test system: MOLT-4 leukemia
RPMI-8226 leukemia = test system: RPMI-8226 leukemia
786-0 renal = test system: 786-0 renal
HCC-2998 colon = test system: HCC-2998 colon
LOX IMVI melanoma = test system: LOX IMVI melanoma
SK-MEL-5 melanoma = test system: SK-MEL-5 melanoma
EKVX NSCLC = test system: EKVX NSCLC
SK-MEL-28 melanoma = test system: SK-MEL-28 melanoma
NCI-H460 NSCLC = test system: NCI-H460 NSCLC
SF-295 CNS = test system: SF-295 CNS
HCT-116 colon = test system: HCT-116 colon
IGROV1 ovarian = test system: IGROV1 ovarian
ACHN renal = test system: ACHN renal
NCI-H322M lung = test system: NCI-H322M lung
UACC-257 melanoma = test system: UACC-257 melanoma
BT-549 breast = test system: BT-549 breast
MDA-MB-231 breast = test system: MDA-MB-231 breast
T-47D breast = test system: T-47D breast
COLO 205 colon = test system: COLO 205 colon
MALME-3M melanoma = test system: MALME-3M melanoma
M14 melanoma = test system: M14 melanoma
UO-31 renal = test system: UO-31 renal
HL-60(TB) leukemia = test system: HL-60(TB) leukemia
OVCAR-4 ovarian = test system: OVCAR-4 ovarian
U251 glioblastoma = test system: U251 glioblastoma
MCF7 breast = test system: MCF7 breast
HCT-15 colon = test system: HCT-15 colon
CAKI-1 renal = test system: CAKI-1 renal
RXF 393 renal = test system: RXF 393 renal
UACC-62 melanoma = test system: UACC-62 melanoma
SK-OV-3 ovarian = test system: SK-OV-3 ovarian
SF-268 CNS = test system: SF-268 CNS
NCI/ADR-RES ovarian = test system: NCI/ADR-RES ovarian
DU-145 prostate = test system: DU-145 prostate
NCI-H23 lung = test system: NCI-H23 lung
SN12C renal = test system: SN12C renal
PC-3 prostate = test system: PC-3 prostate
OVCAR-5 ovarian = test system: OVCAR-5 ovarian
NCI-H522 lung = test system: NCI-H522 lung
SNB-19 CNS = test system: SNB-19 CNS
KM12 colon = test system: KM12 colon
MDA-MB-435 melanoma = test system: MDA-MB-435 melanoma
A498 renal = test system: A498 renal
HOP-62 NSCLC = test system: HOP-62 NSCLC

Compound: COc1ccc(-c2nc(N3CCOCC3)c3sc(CN(C)c4ncc(C(=O)NO)cn4)cc3n2)cn1
- GI50 (OVCAR-8 ovarian): < 10 nM
- TGI (OVCAR-8 ovarian): 10.1 nM
- GI50 (K-562 leukemia): < 10 nM
- TGI (K-562 leukemia): < 10 nM
- GI50 (NCI-H226 lung): < 10 nM
- TGI (NCI-H226 lung): 33 nM
- GI50 (CCRF-CEM leukemia): < 10 nM
- TGI (CCRF-CEM leukemia): < 10 nM
- GI50 (SNB-75 CNS): < 10 nM
- TGI (SNB-75 CNS): 22.6 nM
- GI50 (SW-620 colon): < 10 nM
- TGI (SW-620 colon): < 10 nM
- GI50 (MDA-MB-468 breast): < 10 nM
- TGI (MDA-MB-468 breast): < 10 nM
- GI50 (TK-10 renal): 11.6 nM
- TGI (TK-10 renal): 28.7 nM
- GI50 (HOP-92 NSCLC): < 10 nM
- TGI (HOP-92 NSCLC): 23.6 nM
- GI50 (A549 NSCLC): < 10 nM
- TGI (A549 NSCLC): < 10 nM
- GI50 (HS 578T breast): < 10 nM
- TGI (HS 578T breast): 16 nM
- GI50 (SF-539 CNS): < 10 nM
- TGI (SF-539 CNS): 13.6 nM
- GI50 (HT29 colon): < 10 nM
- TGI (HT29 colon): 12.5 nM
- GI50 (OVCAR-3 ovarian): < 10 nM
- TGI (OVCAR-3 ovarian): < 10 nM
- GI50 (MOLT-4 leukemia): < 10 nM
- TGI (MOLT-4 leukemia): < 10 nM
- GI50 (RPMI-8226 leukemia): < 10 nM
- TGI (RPMI-8226 leukemia): < 10 nM
- GI50 ([…]-0 renal): < 10 nM
- TGI (786-0 renal): 28.4 nM
- GI50 (HCC-2998 colon): < 10 nM
- TGI (HCC-2998 colon): < 10 nM
- GI50 (LOX IMVI melanoma): < 10 nM
- TGI (LOX IMVI melanoma): < 10 nM
- GI50 (SK-MEL-5 melanoma): < 10 nM
- TGI (SK-MEL-5 melanoma): < 10 nM
- GI50 (EKVX NSCLC): 14 nM
- TGI (EKVX NSCLC): 76.5 nM
- GI50 (SK-MEL-28 melanoma): < 10 nM
- TGI (SK-MEL-28 melanoma): 17.9 nM
- GI50 (NCI-H460 NSCLC): < 10 nM
- TGI (NCI-H460 NSCLC): 11.7 nM
- GI50 (SF-295 CNS): < 10 nM
- TGI (SF-295 CNS): 18.9 nM
- GI50 (HCT-116 colon): < 10 nM
- TGI (HCT-116 colon): < 10 nM
- GI50 (IGROV1 ovarian): < 10 nM
- TGI (IGROV1 ovarian): 10.6 nM
- GI50 (ACHN renal): < 10 nM
- TGI (ACHN renal): 13.3 nM
- GI50 (NCI-H322M lung): < 10 nM
- TGI (NCI-H322M lung): 19.1 nM
- GI50 (UACC-257 melanoma): < 10 nM
- TGI (UACC-257 melanoma): < 10 nM
- GI50 (BT-549 breast): < 10 nM
- TGI (BT-549 breast): 13.6 nM
- GI50 (MDA-MB-231 breast): < 10 nM
- TGI (MDA-MB-231 breast): < 10 nM
- GI50 (T-47D breast): < 10 nM
- TGI (T-47D breast): < 10 nM
- GI50 (COLO 205 colon): < 10 nM
- TGI (COLO 205 colon): 11 nM
- GI50 (MALME-3M melanoma): < 10 nM
- TGI (MALME-3M melanoma): < 10 nM
- GI50 (M14 melanoma): < 10 nM
- TGI (M14 melanoma): < 10 nM
- GI50 (UO-31 renal): < 10 nM
- TGI (UO-31 renal): 26.9 nM
- GI50 (HL-60(TB) leukemia): < 10 nM
- TGI (HL-60(TB) leukemia): < 10 nM
- GI50 (OVCAR-4 ovarian): 13.9 nM
- TGI (OVCAR-4 ovarian): 40.7 nM
- GI50 (U251 glioblastoma): < 10 nM
- TGI (U251 glioblastoma): < 10 nM
- GI50 (MCF7 breast): < 10 nM
- TGI (MCF7 breast): < 10 nM
- GI50 (HCT-15 colon): < 10 nM
- TGI (HCT-15 colon): 23.2 nM
- GI50 (CAKI-1 renal): < 10 nM
- TGI (CAKI-1 renal): < 10 nM
- GI50 (RXF 393 renal): < 10 nM
- TGI (RXF 393 renal): < 10 nM
- GI50 (UACC-62 melanoma): < 10 nM
- TGI (UACC-62 melanoma): < 10 nM
- GI50 (SK-OV-3 ovarian): < 10 nM
- TGI (SK-OV-3 ovarian): < 10 nM
- GI50 (SF-268 CNS): < 10 nM
- TGI (SF-268 CNS): < 10 nM
- GI50 (NCI/ADR-RES ovarian): < 10 nM
- TGI (NCI/ADR-RES ovarian): 12.5 nM
- GI50 (DU-145 prostate): < 10 nM
- TGI (DU-145 prostate): < 10 nM
- GI50 (NCI-H23 lung): < 10 nM
- TGI (NCI-H23 lung): < 10 nM
- GI50 (SN12C renal): < 10 nM
- TGI (SN12C renal): 16.3 nM
- GI50 (PC-3 prostate): < 10 nM
- TGI (PC-3 prostate): 10.7 nM
- GI50 (OVCAR-5 ovarian): < 10 nM
- TGI (OVCAR-5 ovarian): 16.9 nM
- GI50 (NCI-H522 lung): < 10 nM
- TGI (NCI-H522 lung): < 10 nM
- GI50 (SNB-19 CNS): < 10 nM
- TGI (SNB-19 CNS): 18.7 nM
- GI50 (KM12 colon): < 10 nM
- TGI (KM12 colon): 15.1 nM
- GI50 (MDA-MB-435 melanoma): < 10 nM
- TGI (MDA-MB-435 melanoma): 10.1 nM
- GI50 (A498 renal): < 10 nM
- TGI (A498 renal): 12.3 nM
- GI50 (HOP-62 NSCLC): < 10 nM
- TGI (HOP-62 NSCLC): 17.4 nM
